Source: paper PMC7586456 (ACS Pharmacology & Translational Science, 2020)
Where two headings read alike, the source gives them in different places.

Tests used:
[1] = system: SARS-S PP; type: cell-based, SARS-CoV
[2] = system: VSV-G PP; type: cell-based, Vesicular stomatitis virus
[3] = system: MERS-S PP; type: cell-based, MERS-CoV
[4] = system: Vero E6 cells
[5] = system: SARS CoV-2 (USA_WA1/2020)
[6] = system: Vero E6 cells; remark: listed apart in the source
[7] = system: VSV-G PP; test: microbe, parasite or virus in culture; type: cell-based, Vesicular stomatitis virus; conditions: for EC50: Vesicular stomatitis virus, Huh-7, read-out: VSV-G PP in Huh7 EC50
[8] = system: Huh7 cells; conditions: human
[9] = in vitro; conditions: human
[10] = system: SARS CoV-2 (USA_WA1/2020); conditions: cited from earlier work
[11] = system: SARS-S PP; type: cell-based, SARS-CoV; remark: listed apart in the source
[12] = system: MERS-S PP; type: cell-based, MERS-CoV; remark: listed apart in the source

Molecule	SARS-S PP in Vero E6 efficacy [1]	VSV-G PP in Vero E6 efficacy [2]	Vero E6 cytotoxicity cytotox ([4]; African green monkey)	safety ratio (CC50 of Vero E6 CPE counter screen divided by EC50 of SARS-CoV-2 CPE assay) ([5]; African green monkey)	Vero E6 cytotoxicity cytotox (SARS-CoV-2 CPE counter screen) ([6]; African green monkey)	MERS-S PP in Huh7 efficacy [3]	VSV-G PP in Huh7 efficacy [7]	EC50 [7]	Huh7 cytotoxicity cytotox [8]	CC50 [9]	other results
CC1=C[C@]23C(=O)[C@@H](C=C(CO)[C@@H](O)[C@]2(O)[C@H]1O)[C@H]1[C@@H](C[C@H]3C)C1(C)C [ingenol]	93.3%	76.4%	–4.0%	355.7	0.0%	–	–	–	–	–	selectivity ratio (EC50 of VSV-G PP entry divided by SARS-S PP entry EC50) [1]: 12.0; activity in MERS-S PP entry in Huh7 cells (in words) [3]: not in MERS-S entry in Huh7 cells
colforsin [NKH477]	71.4%	0%	–	–	–	–	–	–	–	–	EC50 ([1]; read-out: SARS-S PP in Vero E6 EC50): 1.36 µM; EC50 ([2]; read-out: VSV-G PP in Vero E6 EC50): > 57.5 µM; activity in MERS-S PP entry in Huh7 cells (in words) [3]: not in MERS-S entry in Huh7 cells; CC50 [4]: > 57.5 µM; Vero E6 cytotoxicity cytotox [4]: 0%; safety ratio (CC50 of Vero E6 CPE counter screen divided by EC50 of SARS-CoV-2 CPE assay) [5]: 1.1; EC50 ([5]; read-out: SARS-CoV-2 CPE EC50): 23.1 µM; CC50 [6]: 25.2 µM; Vero E6 cytotoxicity cytotox (SARS-CoV-2 CPE counter screen) [6]: 42.0%
COc1c(OCCCN2CCOCC2)ccc2c1N=C(NC(=O)c1cnc(N)nc1)N1CCN=C21 [copanlisib]	–	–	–	–	42.4%	65.8%	6.2%	> 57.5 µM	13.6%	> 57.5 µM	SARS-CoV-2 CPE efficacy [5]: 0.0%
C=CC(=O)Nc1cc(Nc2nccc(-c3cn(C)c4ccccc34)n2)c(OC)cc1N(C)CCN(C)C [osimertinib]	117.5%	118.4%	99.6%	2.5	99.7%	–	–	–	–	–	selectivity ratio (EC50 of VSV-G PP entry divided by SARS-S PP entry EC50) [1]: 15.8
CN(C)CCCN1c2ccccc2CCc2ccc(Cl)cc21 [clomipramine]	–	–	–	–	–	–	–	–	–	–	activity against SARS-S PP entry in the primary screen (in words) [1]: active against SARS-S PP entry; cytotoxicity in the primary screen (in words) [4]: noncytotoxic; protection against SARS-CoV-2 CPE (in words) [10]: protect against SARS-CoV-2 CPE
COc1ccc2cc1Oc1ccc(cc1)C[C@H]1c3c(cc4c(c3Oc3cc5c(cc3OC)CCN(C)[C@@H]5C2)OCO4)CCN1C [cepharanthine]	90.9%	76.9%	106.2%	–	99.0%	108.4%	115.3%	24.2 µM	88.9%	38.3 µM	SARS-CoV-2 CPE efficacy [5]: 92.5%; block of SARS-CoV-2 induced CPE in Vero E6 cells (in words) [10]: able to block SARS-CoV-2 induced CPE in Vero E6 cells, only when added during the viral entry time period, and not the postentry period
CC(CN(C)C)CN1c2ccccc2CCc2ccccc21 (stereo not drawn) [trimipramine]	90.9%	29.2%	16.6%	1.0	16.6%	–	–	–	–	–	entry inhibition activity in Calu-3 cells (in words) [11]: not confirmed
CCN1CCN(Cc2ccc(Nc3ncc(F)c(-c4cc(F)c5nc(C)n(C(C)C)c5c4)n3)nc2)CC1 [abemaciclib]	–	–	–	6.3	34.0%	82.3%	27.1%	> 57.5 µM	90.0%	17.1 µM	selectivity toward SARS-S-based entry compared with VSV-G in Calu-3 cells [11]: > 10 fold; selectivity toward MERS-S-based entry compared with VSV-G in Calu-3 cells [12]: > 10 fold
